In paper PMC8903829 (eLife, 2022):
Like-named read-outs stand apart in the source and are kept apart here.

How the values were obtained:
[1] = Bioanalytical assessment of plasma and brain concentrations after rat DC-MES assay; assay type: in vivo; conditions: Study18085, 2 mg/kg, Rat DC-MES
[2] = system: wild-type Sprague Dawley rats; experiment: DC-Maximal electroshock seizure assay (DC-MES); assay type: in vivo, rat
Procedure: (§1) Phenytoin was formulated in physiologic saline and was administered intraperitoneally (i.p.) using a 25-gauge needle at a dose volume of 10 mL/kg. All compounds were administered 2 hr prior to electrical seizure induction for all seizure models employed in this study.
(§2) The maximal electroshock seizure (MES) assay has been extensively used in the search for anticonvulsant substances ([Löscher et al., 1991]; [Piredda et al., 1985]; [White et al., 1995]). The MES assay is sensitive to nonselective NaV inhibitors. It is considered a model for generalized tonic-clonic (GTC) seizures and provides an assessment of seizure spread. Briefly, an electroshock of direct current (DC) was delivered by corneal electrodes (Electro Convulsive Therapy Unit 57,800 from Ugo Basile). The parameters of stimulation were different between mice and rats. In CF1 mice aged 9–12 weeks, a direct current of 50 mA (60 Hz) was delivered for 0.2 s (pulse width of 0.5ms), whereas in Sprague Dawley (SD) rats aged 5–6 weeks, a direct current of 150 mA (60 Hz) was delivered for 0.3 s (pulse width of 0.5ms). Immediately prior to the electroshock, the animals’ eyes were anesthetized with a drop of Alcaine (0.5% proparacaine hydrochloride).
(§3) An animal was considered protected in the assay in the absence of a GTC with hindlimb extension and is then scored ‘0’. An animal displaying GTC with hindlimb extension was considered not protected and is then scored ‘1’. The experimenter scoring the seizure behavior was blinded to the treatment.

Scn8a^N1768D/+ mice = experiment: Modified 6 Hz psychomotor seizure assay; assay type: in vivo, mouse
Procedure: as §1
Scn8a^N1768D/+heterozygous mice were tested at 5 weeks of age (p35). The modified 6 Hz seizure assay in Scn8a^N1768D/+heterozygous mice was adapted from the traditional 6 Hz assay psychomotor seizure assay to provide a measure of in vivo on target (NaV1.6 mediated) efficacy ([Barton et al., 2001]). The modified assay used a low frequency (6 Hz) but long-duration stimulation (3 s) to induce seizures. […] An electroshock (6 Hz, 12 mA) was delivered for 3 s (at 0.3-ms pulse interval) by corneal electrodes (Electro Convulsive Therapy Unit 57,800 from Ugo Basile). Immediately prior to the electroshock, the animals’ eyes were anesthetized with a drop of Alcaine (0.5% proparacaine hydrochloride).
An animal was considered protected in the assay upon prevention of GTC with hindlimb extension and was then scored ‘0’. An animal displaying GTC with hindlimb extension was considered not protected and is then scored ‘1’. The experimenter scoring the seizure behavior was blinded to the treatment.

[3] = Bioanalytical assessment of plasma and brain concentrations after 6 Hz assay; assay type: in vivo, mouse
Procedure: (§4) Approximately 0.5 mL of blood was collected from each mouse at the end of the assay via cardiac puncture under deep anesthesia. The blood samples were collected in a syringe and transferred to tubes containing EDTA. Blood was stored at 4 °C until centrifuged within 30 min of collection. Plasma was harvested and placed on dry ice and stored in a freezer set to maintain a temperature of –70°C to –80°C until analysis. Brains were harvested immediately after blood collection and placed on dry ice prior to storage in a freezer set to maintain a temperature of –70°C to –80°C until analysis.
(§5) Extraction of plasma samples was carried out by protein precipitation using acetonitrile. Plasma samples (50 µL) were mixed with 50 µL of internal standard (IS) solution in water followed by addition of 10 µL of concentrated ortho-phosphoric acid and 200 µL of acetonitrile. Samples were vortexed for 30 seconds, centrifuged at 13,000 rpm for 20 min, decanted in to a 96-well plate, and further centrifuged at 4000 rpm for 20 min. The samples were analyzed by UHPLC-ESI-MS/MS as described below.
(§6) Prior to extraction, pre-weighed whole brains were homogenized in 1:1 acetonitrile/water (v/v) (4 mL per mouse brain) using an IKA T18 ULTRA-TURRAX Homogenizer at the setting of 4 for approximately 2 min. The homogenate was centrifuged at 13,000 rpm for 20 min and 50 µL of the supernatant were treated exactly as described above for plasma samples. […]
(§7) Samples were analyzed by UHPLC-ESI MS/MS using a TQ-5500 Sciex triple quadrupole mass spectrometer equipped with a Shimadzu Nexera UHPLC pump and auto-sampler system using an ACE C18 PFP, 2.50 × 50 mm, 1.7 µm particle size column and gradient elution consisting of solvent A (0.1% formic acid in water) and solvent B (0.1% formic acid in acetonitrile) starting at 20% B from 0 min to 0.4 min and then increased to 100% B from 0.4 min to 0.6 min. At 2.0 min, the mobile phase composition was switched back to […] for 1 min. The flow rate used throughout the experiment was […]. […] The UHPLC-ESI MS/MS system was controlled by Analyst 1.6.
(§8) Sample concentrations were determined using a linear calibration function, weighted 1 /X, generated by the regression of analyte to IS peak area ratios in the standard samples to their respective concentrations. Acceptance criteria for the analytical run required that the back calculated values of the standards and the QC samples fell within ±20% of their nominal values, except for the lowest standard or lower limit of quantitation (LLOQ), for which the acceptance criterion was ±25%. At least 6 out of 12 standard points had to show back-calculated values within ±20% of their nominal concentrations for the calibration to be accepted. At least three QC samples, one at each level, had to show back-calculated values within ±20% of their nominal concentrations for the whole sample batch to be valid.

[4] = Bioanalytical assessment of plasma and brain concentrations after mouse DC-MES assay; assay type: in vivo; conditions: mouse, intraperitoneal, WT mouse DC-MES acute
Procedure: as §4, §5, §6, §7, §8

wild-type mice (CF-1) = experiment: DC-Maximal electroshock seizure assay (DC-MES); assay type: in vivo, mouse
Procedure: as §1, §2, §3

Sprague Dawley rats = experiment: Observation of potential adverse behavior (behavioral signs) in the rat DC-MES studies; assay type: in vivo; conditions: Sprague Dawley, rat, in vivo, 2 hr
Procedure: Animals were observed by the scientist(s) responsible for dosing for the first 30 min after dosing for and again at the time of assay (2 hr post dose) for signs of abnormal behavior.

[5] = Study16042, 1 mg/kg, SCN8A mouse 6HZ
[6] = Study16042, 3 mg/kg, SCN8A mouse 6HZ
[7] = Study16042, 10 mg/kg, SCN8A mouse 6HZ
[8] = Study16042, 30 mg/kg, SCN8A mouse 6HZ
[9] = Study16042, 56 mg/kg, SCN8A mouse 6HZ
[10] = Study16189, 10 mg/kg, SCN8A mouse 6HZ
[11] = Study16189, 30 mg/kg, SCN8A mouse 6HZ
[12] = Study16202, 1 mg/kg, P75, SCN8A mouse 6HZ
[13] = Study16202, 3 mg/kg, P75, SCN8A mouse 6HZ

O=C1NC(=O)C(c2ccccc2)(c2ccccc2)N1 [PHT]
Mean [Brain] [1]: 1.841 µM
Mean [Palsma] [1]: 3.4567 µM
Rat DC-MES Fraction of animals seizing ([2]; Study18085, 2 mg/kg): 0.667
SCN8A mouse 6HZ Fraction of animals seizing (Scn8a^N1768D/+ mice; Study16042, 1 mg/kg): 1
SCN8A mouse 6HZ Fraction of animals seizing (Scn8a^N1768D/+ mice; Study16042, 3 mg/kg): 0.75
SCN8A mouse 6HZ Fraction of animals seizing (Scn8a^N1768D/+ mice; Study16042, 10 mg/kg): 0.25
SCN8A mouse 6HZ Fraction of animals seizing (Scn8a^N1768D/+ mice; Study16042, 30 mg/kg): 0
SCN8A mouse 6HZ Fraction of animals seizing (Scn8a^N1768D/+ mice; Study16042, 56 mg/kg): 0
SCN8A mouse 6HZ Fraction of animals seizing (Scn8a^N1768D/+ mice; Study16189, 10 mg/kg): 0.15
SCN8A mouse 6HZ Fraction of animals seizing (Scn8a^N1768D/+ mice; Study16189, 30 mg/kg): 0
SCN8A mouse 6HZ Fraction of animals seizing (Scn8a^N1768D/+ mice; Study16202, 1 mg/kg, P75): 1
SCN8A mouse 6HZ Fraction of animals seizing (Scn8a^N1768D/+ mice; Study16202, 3 mg/kg, P75): 0.858
Mean [Brain] [3, 5]: 2.665 µM
Mean [Palsma] [3, 5]: 1.798 µM
Mean [Brain] [3, 6]: 11.7685 µM
Mean [Palsma] [3, 6]: 7.584 µM
Mean [Brain] [3, 7]: 38.4981 µM
Mean [Palsma] [3, 7]: 32.6675 µM
Mean [Brain] [3, 8]: 120.646 µM
Mean [Palsma] [3, 8]: 92.6612 µM
Mean [Brain] [3, 9]: 109.171 µM
Mean [Palsma] [3, 9]: 127.343 µM
Mean [Brain] [3, 10]: 29.4623 µM
Mean [Palsma] [3, 10]: 26.0411 µM
Mean [Brain] [3, 11]: 76.4798 µM
Mean [Palsma] [3, 11]: 59.0466 µM
Mean [Brain] [3, 12]: 2.628 µM
Mean [Palsma] [3, 12]: 2.477 µM
Mean [Brain] [3, 13]: 7.154 µM
Mean [Palsma] [3, 13]: 7.163 µM

O=C1NC(=O)C(c2ccccc2)(c2ccccc2)N1 [phenytoin, Phenytoin]
concentration at 2 h ([4]; brain, 2 mg/kg, Study17131, 2 mg/kg, read-out: Mean [Brain]): 6.12 µM
concentration at 2 h ([4]; brain, 2 mg/kg, Study17136, 2 mg/kg, read-out: Mean [Brain]): 3.6 µM
concentration at 2 h ([4]; brain, 5 mg/kg, Study16130, 5 mg/kg, read-out: Mean [Brain]): 17.9 µM
concentration at 2 h ([4]; brain, 5 mg/kg, Study17136, 5 mg/kg, read-out: Mean [Brain]): 10.9 µM
concentration at 2 h ([4]; brain, 10 mg/kg, Study16130, 10 mg/kg, read-out: Mean [Brain]): 38.3 µM
concentration at 2 h ([4]; plasma, 2 mg/kg, Study17131, 2 mg/kg, read-out: Mean [Palsma]): 3.42 µM
concentration at 2 h ([4]; plasma, 2 mg/kg, Study17136, 2 mg/kg, read-out: Mean [Palsma]): 3.65 µM
concentration at 2 h ([4]; plasma, 5 mg/kg, Study16130, 5 mg/kg, read-out: Mean [Palsma]): 16.1 µM
concentration at 2 h ([4]; plasma, 5 mg/kg, Study17136, 5 mg/kg, read-out: Mean [Palsma]): 11.5 µM
concentration at 2 h ([4]; plasma, 10 mg/kg, Study16130, 10 mg/kg, read-out: Mean [Palsma]): 30.7 µM
WT mouse DC-MES acute Fraction of animals seizing (wild-type mice (CF-1); Study16130, 5 mg/kg): 0.5714
WT mouse DC-MES acute Fraction of animals seizing (wild-type mice (CF-1); Study16130, 10 mg/kg): 0
WT mouse DC-MES acute Fraction of animals seizing (wild-type mice (CF-1); Study17131, 2 mg/kg): 0.6667
WT mouse DC-MES acute Fraction of animals seizing (wild-type mice (CF-1); Study17136, 2 mg/kg): 0.7143
WT mouse DC-MES acute Fraction of animals seizing (wild-type mice (CF-1); Study17136, 5 mg/kg): 0.625
EC50 (wild-type mice (CF-1); WT mouse DC-MES, 2 hr post dose (oral; phenytoin i.p.), read-out: brain EC50): 13 µM
EC50 ([2]; WT rat DC-MES (oral; phenytoin i.p.), read-out: plasma EC50): 4.5 µM
EC50 ([2]; WT rat DC-MES, 2 hr post dose (oral; phenytoin i.p.), read-out: brain EC50): 2.6 µM
EC50 (Scn8a^N1768D/+ mice; Mus musculus, Scn8a^N1768D/+ 6 Hz model, 2 hr post dose (oral; phenytoin i.p.), read-out: brain EC50): 18 µM
minimal plasma concentration provoking behavioral signs (BSC) (Sprague Dawley rats): 11 µM
